# Measurements published in patent US12411143B2, “CD146 and uses thereof as a biomarker and as a therapeutic target in the diagnosis and treatment of fibrosis” (ASSISTANCE PUBLIQUE HÔPITAUX DE MARSEILLE, priority 2018, dated 2025).
# What was measured:
# Type in all cases: cell-based, human
# [1] = system: ECFC; assay: Soluble CD146 secretion in ECFC (ELISA)
# Description: A: Secretion of soluble CD146 (CD146s) was determined in ECFC in response to 24 h of treatment with 20 ng/ml TNF, 20 ng/ml VEGF, 5 ng/ml TGFb, 50 ng/ml netrin, 50 ng/ml Wnt5a and 50 ng/ml Wnt3a.
# B: The effect of the pan-inhibitor GM6001 was tested on CD146s secretion in ECFC cells by ELISA. Experiments were performed in control conditions and after treatment with 20 ng/ml TNF for 24 h. […] A dose-dependence of GM6001 effect was performed between 1 and 50 μM. Results are the mean values+/−SEM of 5 experiments.
# C: The effect of furin convertase inhibitor (IF) was tested at 50 μMon CD146s secretion in control condition and after treatment with TNF 20 ng/ml for 24 h. Results are the mean values+/−SEM of 3 experiments.
# D: Effect of TIMP-1, -2 and -3 (1 μg/ml) was tested on CD146s secretion in control condition and after treatment with 20 ng/ml TNF. Results are the mean values+/−SEM of 3 experiments. *: P<0.05, **: P<0.01, ***: P<0.001, experimental vs Control
# A: ECFC were transfected with siRNA targeting the short (shCD146) or the long (IgCD146) isoforms of CD146 and with a control siRNA (C). Soluble CD146 (sCD146) secretion was determined. Results are the mean values+/−SEM of 4 different experiments.
# B: ECFC were transfected with siRNA targeting MT1-MMP, MMP2, ADAM10 or Tace and with a control siRNA (C). Soluble CD146 (sCD146) secretion was determined. In one condition, cells were treated with GM6001 10 μM. Results are the mean values+/−SEM of 5 different experiments.
# A: ECFC were transfected with siRNA targeting the short (shCD146) or the long (IgCD146) isoforms of CD146 and with a control siRNA (C) and soluble CD146 (sCD146) secretion was determined in basal condition and in cells treated for 24 h with TNF 20 ng/ml. Results are the mean values +/−SEM of 5 different experiments.
# B: ECFC treated for 24 h with 20 ng/ml TNF were transfected with siRNA targeting Tace, ADAM10, MT1-MMP and with a control siRNA (C) and soluble CD146 (sCD146) secretion was determined. Results are the mean values +/−SEM of 3 different experiments.
# Endothelial Colony Forming Cells (ECFC) were cultured in endothelial EGM-2 MV medium as previously described (Delorme B et al., 2005).
# SiRNA designed to silence the different isoforms of sCD146 were generated. A control siRNA was also used in each experiment. siRNAs were introduced in endothelial cells using the Silence magmagnetofection kit as described by the manufacturer (OZ Biosciences).
# Shed sCD146 was assayed using the commercial ELISA assay (CY-QUANT sCD146, Biocytex, Marseille). Plates were coated with specific mouse monoclonal anti-human CD146 F(ab′)2 fragments. 10 μL of sera was added to each well and incubated for 30 minutes at room temperature. After incubation, the plates were washed five times, followed by incubation with a specific HRP-coupled monoclonal antibody (7A4-HRP, 1 mg/ml, Biocytex, Marseille, France) at a 1:1 000 dilution in a specific diluent for 30 minutes at room temperature and then washed five times. 200 μL of tetramethylbenzidine (TMB) substrate was incubated for approximately 20 minutes at room temperature. The colorimetric reaction was then stopped by the addition of 100 μL of an acid solution. The intensity of the signal was directly related to the concentration of sCD146 initially contained in the sample. For detecting the two spliced isoforms of sCD146 (I5-13-sCD146 and I10-sCD146), the same immunoassay was used (Biocytex). The protocol was modified only for the second antibody (detection antibody) that was replaced by the anti-I5-13-sCD146 or anti-I10-sCD146 antibodies coupled to HRP.
# [2] = system: ECFC; assay: Permeability of ECFC monolayer to dextran-FITC; details: siRNA or plasmid transfection
# Description: D: ECFC were transfected with siRNA targeting ADAM10 or Tace and with a control siRNA (C). The permeability of the ECFC monolayer grown on semi-permeable filters was determined using dextran-FITC. Results are the mean values+/−SEM of 3 experiments.
# E: ECFC were transfected with plasmid vectors encoding ADAM10 (p-ADAM10) or Tace (p-Tace) and with a control plasmid vector (C). The permeability of the ECFC monolayer grown on semi-permeable filters was determined using dextran-FITC. Results are the mean values+/−SEM of 3 experiments. *: P<0.05, **: P<0.01, ***: P<0.001, experimental vs Control.
# ECFC were seeded at 60,000 cells per well on membrane inserts (porosity 1 μm) of a 24-multiwell double chamber system (Multiwell Insert System, BD Biosciences, Le Pont de Claix, France) after siRNA transfection or not. Confluent endothelial monolayers were then incubated for 24 h in EGM-2 medium in the presence or absence of the different forms of sCD146. The FITC-dextran (sigma) was added at the apical surface of the cells and was allowed to migrate for 1.5 h at 37° C. Basolateral FITC-dextran was then measured using a Cytofluor Series 4000 Fluorescence (PerSeptiveBiosystems, Framingham, MA).
# [3] = system: ECFC; assay: ECFC proliferation assay; details: siRNA or plasmid transfection, in the presence of GM6001 10 μM
# Description: A: Effect of siRNA targeting I10-sCD146 and I5-13-sCD146 on proliferation of ECFC. Experiments were performed in the presence of GM6001 10 μM. Results are mean values of 4 different experiments and representative pictures of the cells in one experiment are given.
# B: Effect of over-expression of I10-sCD146 (p-I10-sCD146), I5-13-sCD146 (p-I5-13-sCD146) and shed sCD146 (p-shed sCD146) realized by plasmid transfection on proliferation of ECFC. Experiments were performed in the presence of GM6001 10 μM.
# C: Effect of recombinant proteins I10-sCD146, I5-13-sCD146 and shed sCD146 50 ng/ml on the proliferation of ECFC. Experiments were performed in the presence of GM6001 10 μM. Results are mean values of 4 different experiments.
# Experiments were performed as previously described (Stalin et al., 2013).
Substance,reduction of sCD146 secretion by siRNA ([1]; 24 h TNF 20 ng/ml),effect of siRNA on sCD146 secretion ([1]; control condition),reduction of sCD146 secretion by siRNA ([1]; control condition),permeability of ECFC monolayer to dextran [2],proliferation of ECFC [3]
IgCD146 siRNA: siRNA targeting the long isoform of CD146; sens 5′CCCGUCUCGUAAGACCGAACUUGUA (antisense UACAAGUUCGGUCUUACGAGACGGG; chemistry not given here),about 60%,reduced sCD146 secretion,around 75%,significantly increased endothelial permeability,
"Tace siRNA: siRNA targeting Tace; sens 5′CAGGAUUUAAAGGUUAUGGAA (antisense UUCCAUAAACCUUUAAAUCCUG; listed as RNA, chemistry not given here)",25%,,,did not modify it,
siRNA targeting I5-13-sCD146: siRNA targeting I5-13-sCD146; sens UGGACAUCUAGACGGCUGCUCGUUU (antisense AAACGAGCAGCCGUCUAGAUGUCCA; chemistry not given here),,,,,inhibited the proliferation of ECFC
siRNA targeting I10-sCD146: siRNA targeting I10-sCD146; sens CCCUCCCUCUGGGUAGAGACCAGGU (antisense ACCUGGUCUCUACCCAGAGGGAGGG; chemistry not given here),,,,,inhibited the proliferation of ECFC
